Measurements as given in publication PMC3985765 (Biochemistry, 2014).

Target: T1, FlK (fluoroacetyl-CoA thioesterase) (Streptantibioticus cattleyicolor, UniProt Q1EMV2)
T1 sequence (Q1EMV2 1-139): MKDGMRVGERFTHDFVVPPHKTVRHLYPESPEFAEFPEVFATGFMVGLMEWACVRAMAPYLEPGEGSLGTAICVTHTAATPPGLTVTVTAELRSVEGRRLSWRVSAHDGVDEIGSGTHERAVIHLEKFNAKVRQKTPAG
Experiment: pre-steady-state rapid chemical quench, HPLC of CoA release
Format: biochemical
Conditions: Bis-Tris 100 mM pH 6.0; covalent acyl-enzyme on Glu 50

CC(C)(COP(=O)(O)OP(=O)(O)OC[C@H]1O[C@@H](n2cnc3c(N)ncnc32)[C@H](O)[C@@H]1OP(=O)(O)O)[C@@H](O)C(=O)NCCC(=O)NCCSC(=O)CF [fluoroacetyl-CoA]
pre-steady-state rapid chemical quench, HPLC of CoA release: we observed a burst phase of product formation consistent with enzyme acylation
